From patent US20150045291A1, “LIPOPEPTIDE CONJUGATES COMPRISING SPHINGOLIPID AND HIV GP41 DERIVED PEPTIDES” (priority 2012, published 2015)
Like-named read-outs stand apart in the source and are kept apart here. Starred links: 1 amine or outer side, 2 acyl side, 3 side chain; linkers in the order of their positions; H or OH if unused. Residues, ends and D or L forms follow the SMILES beside them. Groups on a side chain read outwards from the residue. *: point of attachment. Cholesteryloxycarbonyl = CC(C)CCC[C@@H](C)[C@H]1CC[C@H]2[C@@H]3CC=C4C[C@@H](OC(=O)*)CC[C@]4(C)[C@H]3CC[C@]12C; X1 = Cc1c(C)c2c(c(C)c1OC(=O)CCC(=O)*)CCC(C)(CCCC(C)CCCC(C)CCCC(C)C)O2; Sphinganine = CCCCCCCCCCCCCCC[C@@H](O)[C@H](CO)N*; X2 = CCCCCCCCCCCCC/C=C/[C@@H](O)[C@H](CO)N*; CO = O=C([*:1])[*:2]

What was measured:
[1] = Secondary structure determination by circular dichroism; assay type: physicochemical; conditions: percentage of α-helical structure, CD, 10 μM peptide in HEPES buffer 5 mM pH 7.4, 25° C.
Experimental: Secondary structure determination. Circular Dichroism (CD) measurements were performed by using an AppliedPhoto physics spectropolarimeter. The spectra were scanned using a thermostatic quartz cuvette with a path length of 1 mm. Wavelength scans were performed at 25° C.; the average recording time was 15 sec, in 1-nm steps, in the wavelength range of 190-260 nm. Each peptide concentration was 10 μM in HEPES buffer (5 mM, pH 7.4).
Helicity (%): The percentage of α-helical structure was determined as described in the section of Materials and Methods.

[2] = Hydrophobicity by RP-HPLC; assay type: physicochemical; conditions: RP-HPLC retention time, analytical C2 column, CH3CN/H2O gradient
Experimental: Peptide synthesis, lipid moiety conjugation, and fluorescent labeling. Peptides were synthesized on Rink Amide MBHA resin by using the F-moc strategy. Several peptides contain a lysine residue at their C-terminus with an MTT side-chain protecting group (Nova-biochem AG, Switzerland) that requires a special deprotection step under mild acidic conditions (2×1 min of 5% trifluoroacetic acid (TFA) in dichloromethane (DCM) and 30 min of 1% TFA in DCM). This enables the conjugation of a lipid moiety or a fluorescent probe to the C-terminus. The chemical synthesis schemes of the following compounds 1-5 are described in FIG. 6. Conjugation of hexadecanoic (palmitic) acid (C16) or α-Tocopherol succinate (Sigma Chemical Co., Israel) to the N-terminus of selected peptides (compound 2 and compound 4, respectively) was performed using standard F-moc chemistry. Conjugation of cholesterol to the N-terminus of a peptide (compound 3) was performed by adding 10 equivalents of cholesteryl chloroformate (Alfa Aesar, USA) dissolved in DCM, together with 3 equivalents of triethyl amine to the peptides' resin. Conjugation of D-erythro-Dihydrosphingosine (D-erythro sphinganine), (Matreya, LCC, USA) to the N- or C-terminus of a peptide (compound 1) was performed as followed: first, 10 equivalents of N,N′-Disuccinimidyl carbonate (DSC) (Chem-Impex Internatinal, USA) and 20 equivalents of N,N-Diisopropylethylamine (DIEA) were added to the resin for 2 hours in dimethylformamide (DMF). Then, 2 equivalents of sphinganine and 2 equivalents of DIEA were added for overnight incubation in DMF anhydrous. The conjugation of D-erythro-Sphingosine (Matreya, LCC, USA) to the peptides (compound 5) was performed as described for compound 1. Addition of NBD-F, fluoride (4-fluoro-7-nitrobenzofurazan) (NBD) fluorescent probe (Biotium, USA) to the N- or C-terminus of selected peptides was performed in DMF for 1 hour. All peptides were cleaved from the resin by a TFA:DDW:TES (93.1:4.9:2 (v/v)) mixture, and purified by reverse-phase high-performance liquid chromatography (RP-HPLC) to >95% homogeneity. The molecular weight of the peptides was confirmed by platform LCA electrospray mass spectrometry. For hydrophobicity tests the peptides were eluted with a flow rate of 0.6 ml/min using a two-step linear gradient from CH3CN/H2O 20:80 v/v to CH3CN/H2O 95:5 v/v in 30 min and from CH3CN/H2O 95:5 v/v to CH3CN/H2O 95:5 in 10 min v/v on an analytical C2 column (7 μm particle size, pore size 100 Å) from Nucleosil.
Hydrophobicity (min): Hydrophobicity was analyzed by RP-HPLC. The retention time of each compound is presented.

[3] = tested on: fully infectious HIV-1 HXB2
[4] = fully infectious HIV-1 system (Table 2)
[5] = read-out: Virus-cell fusion IC50, TZM-bl cells infected with fully contagious HIV, mean±s.d., n=3
[6] = read-out: IC50 (inhibitory concentration at 50% infectivity), TZM-bl cells, fully contagious HXB2 HIV-1

**Q.** Which “Helicity (%)” value [1] does the source give for `CC[C@H](C)[C@H](NC(=O)CNC(=O)[C@H](Cc1c[nH]c2ccccc12)NC(=O)[C@@H](NC(=O)[C@@H](NC(=O)[C@H](CC(C)C)NC(=O)[C@H](CCC(N)=O)NC(=O)[C@H](CC(C)C)NC(=O)[C@@H](N)CC(C)C)[C@@H](C)O)C(C)C)C(=O)N[C@@H](CCCCN)C(=O)N[C@@H](CCC(N)=O)C(=O)N[C@@H](CC(C)C)C(=O)N[C@@H](CCC(N)=O)C(=O)N[C@@H](C)C(=O)N[C@@H](CCCNC(=N)N)C(=O)N[C@H](C(=O)N[C@@H](CC(C)C)C(N)=O)[C@@H](C)CC` [N17, LLQLTVWGIKQLQARIL] (H-LLQLTVWGIKQLQARIL-NH2; C-terminus assumed) here?
**A.** 20%

**Q.** What about the “Hydrophobicity” value [2] of the same compound?
**A.** 18.2 min

**Q.** And the IC50 [3, 4]?
**A.** > 4000 nM

**Q.** And the IC50 [3, 5]?
**A.** > 4000 nM

**Q.** What about the “Inhibiting viral infectivity (in words)” value ([3]; up to 4 μM, the maximal concentration tested) of the same compound?
**A.** not active

**Q.** What does the source list for `CC[C@H](C)[C@H](NC(=O)CNC(=O)[C@H](Cc1c[nH]c2ccccc12)NC(=O)[C@@H](NC(=O)[C@@H](NC(=O)[C@H](CC(C)C)NC(=O)[C@H](CCC(N)=O)NC(=O)[C@H](CC(C)C)NC(=O)[C@H](CC(C)C)NC(=O)CCC(=O)Oc1c(C)c(C)c2c(c1C)CCC(C)(CCCC(C)CCCC(C)CCCC(C)C)O2)[C@@H](C)O)C(C)C)C(=O)N[C@@H](CCCCN)C(=O)N[C@@H](CCC(N)=O)C(=O)N[C@@H](CC(C)C)C(=O)N[C@@H](CCC(N)=O)C(=O)N[C@@H](C)C(=O)N[C@@H](CCCNC(=N)N)C(=O)N[C@H](C(=O)N[C@@H](CC(C)C)C(N)=O)[C@@H](C)CC` (stereo partly drawn) [Tocopherol-N17] (X1-LLQLTVWGIKQLQARIL-NH2)?
**A.** Helicity (%) [1]: <10%; Hydrophobicity [2]: 28.9 min; IC50 [3, 4]: > 4000 nM; IC50 [3, 5]: > 4000 nM

**Q.** Which IC50 [3, 6] does the source give for `CCCCCCCCCCCCCCC[C@@H](O)[C@H](CO)NC(=O)NCCCC[C@H](NC(=O)[C@H](CC(N)=O)NC(=O)[C@H](CCCCN)NC(=O)[C@H](CCC(=O)O)NC(=O)[C@H](CCC(N)=O)NC(=O)[C@H](CCC(N)=O)NC(=O)[C@H](CC(N)=O)NC(=O)[C@H](CCC(N)=O)NC(=O)[C@H](CO)NC(=O)[C@H](CCC(=O)O)NC(=O)[C@H](CCC(=O)O)NC(=O)[C@@H](NC(=O)[C@H](CC(C)C)NC(=O)[C@H](CO)NC(=O)[C@H](Cc1c[nH]cn1)NC(=O)[C@@H](NC(=O)[C@H](CC(C)C)NC(=O)[C@H](CO)NC(=O)[C@@H](NC(=O)[C@@H](N)Cc1ccc(O)cc1)[C@@H](C)O)[C@@H](C)CC)[C@@H](C)CC)C(N)=O` [DP19K-sphing] (H-YTSLIHSLIEESQNQQEKNK([CO-Sphinganine])-NH2) here?
**A.** 350 nM

**Q.** Which IC50 [3, 4] does the source give for `CCCCCCCCCCCCCCC[C@@H](O)[C@H](CO)NC(=O)N[C@@H](CC(C)C)C(=O)N[C@@H](CC(C)C)C(=O)N[C@@H](CCC(N)=O)C(=O)N[C@@H](CC(C)C)C(=O)N[C@H](C(=O)N[C@H](C(=O)N[C@@H](Cc1c[nH]c2ccccc12)C(=O)NCC(=O)N[C@H](C(=O)N[C@@H](CCCCN)C(=O)N[C@@H](CCC(N)=O)C(=O)N[C@@H](CC(C)C)C(=O)N[C@@H](CCC(N)=O)C(=O)N[C@@H](C)C(N)=O)[C@@H](C)CC)C(C)C)[C@@H](C)O` [Sphing-N14, Sphinganine-LLQLTVWGIKQLQA] ({Sphinganine-CO}-LLQLTVWGIKQLQA-NH2) here?
**A.** 500 ± 100 nM

**Q.** Which IC50 [3, 4] does the source give for `CCCCCCCCCCCCCCC[C@@H](O)[C@H](CO)NC(=O)N[C@@H](CCC(N)=O)C(=O)N[C@@H](CCCCN)C(=O)N[C@H](C(=O)N[C@@H](C)C(=O)N[C@@H](CCCNC(=N)N)C(=O)N[C@@H](CC(C)C)C(=O)N[C@@H](CCC(N)=O)C(=O)N[C@H](C(=O)N[C@@H](CC(C)C)C(=O)N[C@@H](Cc1c[nH]c2ccccc12)C(=O)N[C@@H](CC(C)C)C(=O)N[C@@H](CCC(N)=O)C(=O)N[C@H](C(=O)NCC(=O)N[C@H](C(=O)N[C@@H](CC(C)C)C(=O)N[C@@H](CC(C)C)C(N)=O)C(C)C)[C@@H](C)CC)[C@@H](C)O)[C@@H](C)CC` [Sphing-N17 scrambled] ({Sphinganine-CO}-QKIARLQTLWLQIGVLL-NH2) here?
**A.** > 4000 nM

**Q.** Which IC50 [3, 6] does the source give for `CCCCCCCCCCCCC/C=C/[C@@H](O)[C@H](CO)NC(=O)N[C@@H](CC(C)C)C(=O)N[C@@H](CC(C)C)C(=O)N[C@@H](CCC(N)=O)C(=O)N[C@@H](CC(C)C)C(=O)N[C@H](C(=O)N[C@H](C(=O)N[C@@H](Cc1c[nH]c2ccccc12)C(=O)NCC(=O)N[C@H](C(=O)N[C@@H](CCCCN)C(=O)N[C@@H](CCC(N)=O)C(=O)N[C@@H](CC(C)C)C(=O)N[C@@H](CCC(N)=O)C(=O)N[C@@H](C)C(=O)N[C@@H](CCCNC(=N)N)C(=O)N[C@H](C(=O)N[C@@H](CC(C)C)C(N)=O)[C@@H](C)CC)[C@@H](C)CC)C(C)C)[C@@H](C)O` [Sphingosine-N17, Sphingosine-LLQLTVWGIKQLQARIL] ({X2-CO}-LLQLTVWGIKQLQARIL-NH2) here?
**A.** 208 nM

**Q.** For `CCCCCCCCCCCCCCC[C@@H](O)[C@@H](N)CO` [sphinganine, D-erythro-Dihydrosphingosine, reference compound], which “Effect on viral infectivity / fusion (in words)” value ([3]; at / up to 1 μM) is on record?
**A.** did not affect viral infectivity

**Q.** What does the source list for `CC[C@H](C)[C@H](NC(=O)[C@H](CCC(=O)O)NC(=O)[C@H](CCCNC(=N)N)NC(=O)[C@H](CC(=O)O)NC(=O)[C@H](Cc1c[nH]c2ccccc12)NC(=O)[C@H](CCC(=O)O)NC(=O)[C@H](CCSC)NC(=O)[C@H](Cc1c[nH]c2ccccc12)NC(=O)[C@@H](NC(=O)[C@@H](N)[C@@H](C)O)[C@@H](C)O)C(=O)N[C@@H](CC(N)=O)C(=O)N[C@@H](CC(N)=O)C(=O)N[C@@H](Cc1ccc(O)cc1)C(=O)N[C@H](C(=O)N[C@@H](CCCCN)C(N)=O)[C@@H](C)O` [PBDK, TTWMEWDREINNYTK] (H-TTWMEWDREINNYTK-NH2; N-terminus and C-terminus assumed)?
**A.** IC50 ([3]; read-out: IC50 (nM), […], fully infectious HIV-1 system (Table 3)): 5350 ± 1700 nM; IC90 ([3]; read-out: IC90 (nM), […], fully infectious HIV-1 system (Table 3)): > 10000 nM

**Q.** Which IC50 [3, 4] does the source give for `CCCCCCCCCCCCCCC[C@@H](O)[C@H](CO)NC(=O)N[C@@H](CC(C)C)C(=O)N[C@@H](CCC(=O)O)C(=O)N[C@@H](CCC(N)=O)C(=O)N[C@@H](CC(C)C)C(=O)N[C@@H](CO)C(=O)N[C@H](C(=O)N[C@@H](Cc1c[nH]c2ccccc12)C(=O)NCC(=O)N[C@@H](CO)C(=O)N[C@@H](CCCCN)C(=O)N[C@@H](CCC(N)=O)C(=O)N[C@@H](CC(N)=O)C(=O)N[C@@H](CCC(N)=O)C(=O)N[C@@H](C)C(=O)N[C@@H](CCCNC(=N)N)C(=O)N[C@@H](CCCNC(=N)N)C(=O)N[C@@H](CC(C)C)C(N)=O)C(C)C` [Sphing-N17mut (a, d)] ({Sphinganine-CO}-LEQLSVWGSKQNQARRL-NH2) here?
**A.** > 4000 nM

**Q.** Which “Helicity (%)” value [1] does the source give for `CC[C@H](C)[C@H](NC(=O)CNC(=O)[C@H](Cc1c[nH]c2ccccc12)NC(=O)[C@@H](NC(=O)[C@@H](NC(=O)[C@H](CC(C)C)NC(=O)[C@H](CCC(N)=O)NC(=O)[C@H](CC(C)C)NC(=O)[C@H](CC(C)C)NC(=O)O[C@H]1CC[C@@]2(C)C(=CC[C@H]3[C@@H]4CC[C@H]([C@H](C)CCCC(C)C)[C@@]4(C)CC[C@@H]32)C1)[C@@H](C)O)C(C)C)C(=O)N[C@@H](CCCCN)C(=O)N[C@@H](CCC(N)=O)C(=O)N[C@@H](CC(C)C)C(=O)N[C@@H](CCC(N)=O)C(=O)N[C@@H](C)C(=O)N[C@@H](CCCNC(=N)N)C(=O)N[C@H](C(=O)N[C@@H](CC(C)C)C(N)=O)[C@@H](C)CC` [Cholesterol-N17] (Cholesteryloxycarbonyl-LLQLTVWGIKQLQARIL-NH2) here?
**A.** <10%

**Q.** And the “Hydrophobicity” value [2]?
**A.** 28.9 min

**Q.** What about the IC50 [3, 4] of the same compound?
**A.** > 4000 nM

**Q.** And the IC50 [3, 5]?
**A.** > 4000 nM
